Results as given in paper PMC9386018, “A lymphatic-absorbed multi-targeted kinase inhibitor for myelofibrosis therapy” (Nature Communications, 2022).
Values joined by “and” are separate entries in the source; they are usually repeats but may differ in a detail not shown here. Equal entries are not always repeated.

Columns and labels:
[1] = target: Target kinase isoforms (PI3K, mTOR, RAF, MEK) (Homo sapiens, UniProt P42336); assay: Target kinase isoforms 10-point IC50 determination (Supplementary Fig. 7); format: biochemical; conditions: PI3K alpha
Target kinase isoforms (PI3K, mTOR, RAF, MEK) (Homo sapiens, UniProt P42336), sequence (P42336 whole entry, canonical isoform): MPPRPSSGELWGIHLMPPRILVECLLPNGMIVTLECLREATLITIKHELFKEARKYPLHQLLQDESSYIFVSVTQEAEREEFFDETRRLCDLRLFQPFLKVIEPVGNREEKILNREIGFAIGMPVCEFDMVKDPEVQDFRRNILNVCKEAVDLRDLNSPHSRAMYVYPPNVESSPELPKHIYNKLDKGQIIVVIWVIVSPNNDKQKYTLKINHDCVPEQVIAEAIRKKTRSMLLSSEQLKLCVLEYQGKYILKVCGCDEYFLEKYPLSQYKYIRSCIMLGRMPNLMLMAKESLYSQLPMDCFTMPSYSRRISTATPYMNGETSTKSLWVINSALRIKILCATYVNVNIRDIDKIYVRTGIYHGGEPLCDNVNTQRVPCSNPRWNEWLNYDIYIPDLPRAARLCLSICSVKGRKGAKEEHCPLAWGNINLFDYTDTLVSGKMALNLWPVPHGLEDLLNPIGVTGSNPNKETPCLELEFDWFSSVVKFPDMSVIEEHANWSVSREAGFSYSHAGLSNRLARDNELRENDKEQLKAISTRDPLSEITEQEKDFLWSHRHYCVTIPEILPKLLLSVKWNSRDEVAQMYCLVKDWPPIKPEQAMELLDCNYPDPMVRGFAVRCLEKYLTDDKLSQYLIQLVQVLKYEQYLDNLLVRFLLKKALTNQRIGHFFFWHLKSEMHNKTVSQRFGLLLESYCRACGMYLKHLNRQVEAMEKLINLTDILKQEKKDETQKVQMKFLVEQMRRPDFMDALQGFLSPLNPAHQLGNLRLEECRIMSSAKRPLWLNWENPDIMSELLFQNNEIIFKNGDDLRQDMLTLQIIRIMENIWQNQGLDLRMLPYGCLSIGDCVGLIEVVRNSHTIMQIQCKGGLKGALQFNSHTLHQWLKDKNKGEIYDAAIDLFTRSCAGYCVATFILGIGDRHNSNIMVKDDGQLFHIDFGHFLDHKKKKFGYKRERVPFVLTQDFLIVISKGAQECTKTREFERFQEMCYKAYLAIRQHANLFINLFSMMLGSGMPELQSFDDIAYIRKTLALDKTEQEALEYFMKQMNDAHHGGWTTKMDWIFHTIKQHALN
Excerpt: (§1) The average percent kinase inhibition from replicate data was ranked low to high, converted to a compatible identifier format, then input into Coral Human Kinome Visualization software for presentation analysis. […] Scaling of evolutionary distance for PI kinases is only relative and is based on literature analysis[62],[63]. Average percent kinome inhibition values from replicate data are supplied in Source Data file. […] Corrected data was normalized to vehicle treated control values, and dose response percent kinase activity was analyzed by non-linear regression for determination of IC50 values.

[2] = target: Target kinase isoforms (PI3K, mTOR, RAF, MEK) (Homo sapiens, UniProt P42338); assay: as above; format: biochemical; conditions: PI3K beta
Target kinase isoforms (PI3K, mTOR, RAF, MEK) (Homo sapiens, UniProt P42338), sequence (P42338 whole entry, canonical isoform): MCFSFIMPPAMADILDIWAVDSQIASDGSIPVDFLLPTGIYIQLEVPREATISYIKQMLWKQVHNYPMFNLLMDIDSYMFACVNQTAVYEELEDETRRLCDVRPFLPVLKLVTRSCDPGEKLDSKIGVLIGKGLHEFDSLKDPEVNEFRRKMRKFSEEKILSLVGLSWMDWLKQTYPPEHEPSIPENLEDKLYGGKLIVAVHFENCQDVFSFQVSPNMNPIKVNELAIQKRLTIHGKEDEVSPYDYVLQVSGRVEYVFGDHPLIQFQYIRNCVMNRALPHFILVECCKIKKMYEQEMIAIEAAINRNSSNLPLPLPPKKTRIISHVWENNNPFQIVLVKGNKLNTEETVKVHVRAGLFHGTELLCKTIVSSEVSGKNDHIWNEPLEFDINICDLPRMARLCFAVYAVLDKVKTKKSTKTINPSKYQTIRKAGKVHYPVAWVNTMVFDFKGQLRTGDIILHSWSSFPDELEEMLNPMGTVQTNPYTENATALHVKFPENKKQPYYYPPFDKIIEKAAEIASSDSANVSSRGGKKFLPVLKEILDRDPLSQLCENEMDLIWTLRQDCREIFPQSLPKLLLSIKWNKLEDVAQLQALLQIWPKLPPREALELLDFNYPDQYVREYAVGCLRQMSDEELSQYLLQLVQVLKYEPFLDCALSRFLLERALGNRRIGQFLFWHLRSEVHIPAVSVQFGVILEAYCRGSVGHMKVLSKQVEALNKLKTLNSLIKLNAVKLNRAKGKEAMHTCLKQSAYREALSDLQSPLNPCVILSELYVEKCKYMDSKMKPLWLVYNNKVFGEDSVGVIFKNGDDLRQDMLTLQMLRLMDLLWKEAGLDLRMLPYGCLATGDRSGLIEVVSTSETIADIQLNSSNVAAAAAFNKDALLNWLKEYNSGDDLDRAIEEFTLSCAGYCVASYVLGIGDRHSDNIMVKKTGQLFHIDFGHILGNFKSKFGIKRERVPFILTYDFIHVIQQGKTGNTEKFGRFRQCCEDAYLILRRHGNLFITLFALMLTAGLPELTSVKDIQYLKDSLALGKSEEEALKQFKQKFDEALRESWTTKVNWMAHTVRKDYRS
Excerpt: as §1

[3] = target: Target kinase isoforms (PI3K, mTOR, RAF, MEK) (Homo sapiens, UniProt P42345); assay: as above; format: biochemical; conditions: mTOR
Excerpt: as §1

[4] = target: Target kinase isoforms (PI3K, mTOR, RAF, MEK) (Homo sapiens, UniProt P48736); assay: as above; format: biochemical; conditions: PI3K gamma
Target kinase isoforms (PI3K, mTOR, RAF, MEK) (Homo sapiens, UniProt P48736), sequence (P48736 whole entry, canonical isoform): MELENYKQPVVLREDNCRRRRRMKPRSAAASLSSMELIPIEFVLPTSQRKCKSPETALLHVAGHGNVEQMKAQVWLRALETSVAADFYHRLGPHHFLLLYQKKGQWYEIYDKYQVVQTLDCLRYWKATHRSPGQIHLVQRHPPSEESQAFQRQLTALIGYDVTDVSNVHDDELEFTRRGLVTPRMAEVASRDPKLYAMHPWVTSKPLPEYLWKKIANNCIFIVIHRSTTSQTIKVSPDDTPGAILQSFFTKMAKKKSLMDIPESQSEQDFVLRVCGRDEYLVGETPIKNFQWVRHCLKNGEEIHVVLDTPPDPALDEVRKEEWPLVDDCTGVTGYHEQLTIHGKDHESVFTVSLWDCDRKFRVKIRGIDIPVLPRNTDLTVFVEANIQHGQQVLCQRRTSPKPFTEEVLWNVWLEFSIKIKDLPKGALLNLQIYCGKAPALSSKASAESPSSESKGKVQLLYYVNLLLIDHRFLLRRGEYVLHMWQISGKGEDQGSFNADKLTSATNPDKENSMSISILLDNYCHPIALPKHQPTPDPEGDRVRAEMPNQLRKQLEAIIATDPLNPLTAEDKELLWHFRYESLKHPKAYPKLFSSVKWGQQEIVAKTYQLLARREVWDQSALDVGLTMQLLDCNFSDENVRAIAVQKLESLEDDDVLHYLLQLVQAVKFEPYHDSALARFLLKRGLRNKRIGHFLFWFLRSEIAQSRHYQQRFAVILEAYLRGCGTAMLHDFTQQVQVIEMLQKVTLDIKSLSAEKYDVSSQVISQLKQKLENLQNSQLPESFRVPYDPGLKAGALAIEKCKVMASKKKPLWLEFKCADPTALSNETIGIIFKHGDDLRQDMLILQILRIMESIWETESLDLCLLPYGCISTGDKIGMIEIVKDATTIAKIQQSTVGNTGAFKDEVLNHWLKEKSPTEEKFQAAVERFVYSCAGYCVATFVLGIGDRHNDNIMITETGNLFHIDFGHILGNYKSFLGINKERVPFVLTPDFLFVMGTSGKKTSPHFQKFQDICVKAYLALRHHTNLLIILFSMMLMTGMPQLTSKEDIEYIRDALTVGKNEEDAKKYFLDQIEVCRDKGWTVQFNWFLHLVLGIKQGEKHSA
Excerpt: as §1

[5] = Pharmacokinetic analysis of plasma after intravenous and oral dosing; conditions: plasma, mice, analyte = label, individual animals
[6] = concentration 0.495 nM, 0.000495 µM
[7] = concentration 1.52 nM, 0.00152 µM
[8] = concentration 4.57 nM, 0.00457 µM

- Kinase Activity (%) PI3K alpha ([1]; concentration 0.00626 nM, 6.26 pM): 96% and 108% and 85% and 101%
- activity at 18.8 pM ([1]; concentration 0.0188 nM): 97%
- Kinase Activity (%) PI3K alpha ([1]; concentration 0.0188 nM, 18.8 pM): 110% and 96% and 100%
- activity at 56.4 pM ([1]; concentration 0.0564 nM): 104%
- Kinase Activity (%) PI3K alpha ([1]; concentration 0.0564 nM, 56.4 pM): 103% and 96% and 99%
- activity at 0.000495 µM ([1]; concentration 0.495 nM): 47%
- Kinase Activity (%) PI3K alpha [1, 6]: 55% and 56% and 58%
- activity at 0.00152 µM ([1]; concentration 1.52 nM): 29%
- Kinase Activity (%) PI3K alpha [1, 7]: 28% and 30% and 31%
- activity at 0.00457 µM ([1]; concentration 4.57 nM): 15%
- Kinase Activity (%) PI3K alpha [1, 8]: 11% and 9%
- Kinase Activity (%) PI3K alpha ([1]; concentration 41.2 nM, 0.0412 µM): 3% and 2% and 0%
- Kinase Activity (%) PI3K beta ([2]; concentration 0.0187 nM, 18.7 pM): 86% and 99% and 98%
- Kinase Activity (%) PI3K beta ([2]; concentration 0.0562 nM, 56.2 pM): 94% and 122% and 99% and 98%
- Kinase Activity (%) PI3K beta ([2]; concentration 123 nM, 0.123 µM): 6% and 7% and 8% and 13%
- activity at […] ([2]; concentration 370 nM): 4%
- Kinase Activity (%) PI3K beta ([2]; concentration 370 nM, […]): 3%
- activity at 1.11 µM ([2]; concentration 1110 nM): 5%
- Kinase Activity (%) PI3K beta ([2]; concentration 1110 nM, 1.11 µM): 3%
- Kinase Activity (%) PI3K beta ([2]; concentration 3330 nM, 3.33 µM): 7% and 6% and 3%
- Kinase Activity (%) PI3K beta ([2]; concentration 10000 nM, 10 µM): 7% and 0% and 3%
- activity at 6.09 pM ([2]; concentration […]): 108%
- activity at 0.000495 µM ([3]; concentration 0.495 nM): 96%
- Kinase Activity (%) mTOR [3, 6]: 89% and 90% and 92%
- activity at 0.00152 µM ([3]; concentration 1.52 nM): 78%
- Kinase Activity (%) mTOR [3, 7]: 80% and 77% and 74% and 83% and 76%
- activity at 0.00457 µM ([3]; concentration 4.57 nM): 63%
- Kinase Activity (%) mTOR [3, 8]: 61% and 56% and 52% and 57% and 58%
- Kinase Activity (%) mTOR ([3]; concentration 123 nM, 0.123 µM): 7% and 3% and 2% and 5% and 0%
- Kinase Activity (%) mTOR ([3]; concentration 1110 nM, 1.11 µM): 5% and 3% and 2% and -4% and -2% and -1%
- Kinase Activity (%) mTOR ([3]; concentration 3330 nM, 3.33 µM): 3% and 2% and 1% and -3% and -2% and -4%
- Kinase Activity (%) mTOR ([3]; concentration 10000 nM, 10 µM): 6% and 3% and 0% and -1% and 1% and -2%
- activity at 18.7 pM ([4]; concentration 0.0187 nM): 118%
- Kinase Activity (%) PI3K gamma ([4]; concentration 3330 nM, 3.33 µM): 0% and 3%
- Kinase Activity (%) PI3K gamma ([4]; concentration 10000 nM, 10 µM): 3% and 0% and 8%
- activity at 6.09 pM ([4]; concentration […]): 110%
- concentration at 0.167 h ([5]; female, CD-1, mouse, iv, 15 mg kg^−1, Concentration (ng/mL), single i.v. LP-182 15 mg kg^−1, 0.167 h): 15.5 ng/mL
- concentration at 0.5 h ([5]; female, CD-1, mouse, iv, 15 mg kg^−1, Concentration (ng/mL), single i.v. LP-182 15 mg kg^−1, 0.5 h): 7.17 ng/mL
- concentration at 1 h ([5]; female, CD-1, mouse, iv, 15 mg kg^−1, Concentration (ng/mL), single i.v. LP-182 15 mg kg^−1, 1 h): 6.53 ng/mL
- concentration at 0.5 h ([5]; female, CD-1, mouse, po, 400 mg kg^−1, Concentration (ng/mL), single p.o. LP-182 400 mg kg^−1, 0.5 h): 9.62 ng/mL
- concentration at 16 h ([5]; female, CD-1, mouse, po, 400 mg kg^−1, Concentration (ng/mL), single p.o. LP-182 400 mg kg^−1, 16 h): 19 ng/mL
- Concentration ([5]; single i.v. LP-182 15 mg kg^−1, 0.167 h): 14.8 ng/mL and 14.5 ng/mL
- Concentration ([5]; single i.v. LP-182 15 mg kg^−1, 0.5 h): 7.97 ng/mL and 7.89 ng/mL
- Concentration ([5]; single i.v. LP-182 15 mg kg^−1, 1 h): 5.65 ng/mL and 6.42 ng/mL
- Concentration ([5]; single i.v. LP-182 15 mg kg^−1, 2 h): 2.97 ng/mL and 2.53 ng/mL and 1.08 ng/mL
- Concentration ([5]; single p.o. LP-182 400 mg kg^−1, 0.167 h): 7.25 ng/mL and 15.1 ng/mL and 1.83 ng/mL
- Concentration ([5]; single p.o. LP-182 400 mg kg^−1, 0.5 h): 13.1 ng/mL and 15 ng/mL
- Concentration ([5]; single p.o. LP-182 400 mg kg^−1, 1 h): 29.3 ng/mL and 56.7 ng/mL and 12.7 ng/mL
- Concentration ([5]; single p.o. LP-182 400 mg kg^−1, 2 h): 12.6 ng/mL and 14.5 ng/mL and 5.44 ng/mL
- Concentration ([5]; single p.o. LP-182 400 mg kg^−1, 4 h): 23.5 ng/mL and 11.5 ng/mL and 14 ng/mL
- Concentration ([5]; single p.o. LP-182 400 mg kg^−1, 7 h): 27.3 ng/mL and 11.6 ng/mL and 31.5 ng/mL
- Concentration ([5]; single p.o. LP-182 400 mg kg^−1, 16 h): 12.8 ng/mL and 13.1 ng/mL
- Concentration ([5]; single p.o. LP-182 400 mg kg^−1, 24 h): 24.5 ng/mL and 9.81 ng/mL and 21.4 ng/mL
Structure (SMILES): O=S(=O)(Nc1cc(-c2ccc3ncc(N4CCNCC4)nc3c2)cnc1Cl)c1ccc(F)cc1 [LP-527, N-(2-chloro-5-(3-(piperazin-1-yl)quinoxalin-6-yl)pyridin-3-yl)-4-fluorobenzenesulfonamide]
- Kinase Activity (%) PI3K beta [2, 6]: 87% and 91% and 92% and 97% and 104% and 103% and 82% and 98%
